# Source: patent publication US10344025B2, “GLS1 inhibitors for treating disease” (Board of Regents, The University of Texas System, priority 2014, dated 2019)
# “And” between values parts separate entries of the source, which are not always exact repeats. Equal entries are not always repeated.
# Key:
# [1] = tested on: A549 cells; assay: Proliferation Assay (A549 viability, Cell Titer Fluor, 72 hours); assay type: cell-based; conditions: Homo sapiens
# In short: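 Cell Titer Fluor fluorescence after 72 h compound treatment (0.5% DMSO, 37 °C, 5% CO2) of A549 cells plated 24 h earlier at 1000/well. Four-parameter logistic fitting gave IC50.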
# [2] = molecular target: purified recombinant human GAC (GLS1) (Homo sapiens (Human), UniProt O94925); assay: GLS1 Enzymatic Activity Assay (dual-coupled enzymatic assay, resorufin/Amplex UltraRed readout); assay type: biochemical;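 further: glutamate from GAC coupled via glutamate oxidase and peroxidase to resorufin, read as fluorescence (ex 530, em 590 nm) kinetically or at 20 min, four-parameter logistic IC50 fit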
# purified recombinant human GAC (GLS1), sequence (O94925 other isoform, or with tags, fused parts or gaps): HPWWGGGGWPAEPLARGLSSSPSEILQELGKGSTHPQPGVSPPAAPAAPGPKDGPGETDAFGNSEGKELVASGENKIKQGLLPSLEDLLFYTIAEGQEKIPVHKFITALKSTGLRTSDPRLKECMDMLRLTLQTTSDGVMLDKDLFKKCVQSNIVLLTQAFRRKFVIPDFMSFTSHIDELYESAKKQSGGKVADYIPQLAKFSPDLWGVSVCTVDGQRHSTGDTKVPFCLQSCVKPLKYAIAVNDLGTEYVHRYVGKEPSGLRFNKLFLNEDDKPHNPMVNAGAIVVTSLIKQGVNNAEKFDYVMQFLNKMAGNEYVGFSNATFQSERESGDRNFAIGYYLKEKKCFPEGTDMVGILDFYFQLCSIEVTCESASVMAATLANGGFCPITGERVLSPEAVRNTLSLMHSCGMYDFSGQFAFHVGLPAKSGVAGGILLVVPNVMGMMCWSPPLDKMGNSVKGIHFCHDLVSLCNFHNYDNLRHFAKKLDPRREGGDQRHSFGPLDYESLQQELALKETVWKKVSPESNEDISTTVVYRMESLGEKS
SMILES,"EC50 ([1]; A549, 72 h) [µM]",IC50 [2],EC50 [1] [µM]
"O=C(NCc1cccc(OC(F)(F)F)c1)c1cn(CCC(F)Cn2cc(C(=O)NCc3ncccc3F)nn2)nn1 (centres unmarked) [Example 429, 1-{2-fluoro-4-[4-({[3-(trifluoromethoxy)phenyl]methyl}carbamoyl)-1H-1,2,3-triazol-1-yl]butyl}-N-[(3-fluoropyridin-2-yl)methyl]-1H-1,2,3-triazole-4-carboxamide]",0.1 to 0.5,< 0.1 µM,–
"O=C(NCc1cc(C(F)(F)F)ccn1)c1cn(CC(F)CCc2nnc(C(=O)NCc3cc(OC(F)(F)F)ccc3F)s2)nn1 (centres unmarked) [Example 449, 5-{3-fluoro-4-[4-({[4-(trifluoromethyl)pyridin-2-yl]methyl}carbamoyl)-1H-1,2,3-triazol-1-yl]butyl}-N-{[2-fluoro-5-(trifluoromethoxy)phenyl]methyl}-1,3,4-thiadiazole-2-carboxamide]",< 0.1,< 0.1 µM,–
"O=C(NCc1cn2ccsc2n1)c1cn(CCC(F)Cn2cc(C(=O)NCc3cc(C(F)(F)F)ccn3)nn2)nn1 (centres unmarked) [Example 155, 1-{3-fluoro-4-[4-({[4-(trifluoromethyl)pyridin-2-yl]methyl}carbamoyl)-1H-1,2,3-triazol-1-yl]butyl}-N-{imidazo[2,1-b][1,3]thiazol-6-ylmethyl}-1H-1,2,3-triazole-4-carboxamide]",0.5 to 5,< 0.1 µM,–
"CNC(=O)c1cn(CC(F)CCc2nnc(NC(=O)Cc3cc(C4CCOCC4)ccn3)s2)nn1 (centres unmarked) [Example 265, 1-(2-fluoro-4-(5-(2-(4-(tetrahydro-2H-pyran-4-yl)pyridin-2-yl)acetamido)-1,3,4-thiadiazol-2-yl)butyl)-N-methyl-1H-1,2,3-triazole-4-carboxamide]",< 0.1,< 0.1 µM,–
"O=C(NCc1cncc(C(F)(F)F)c1)c1cn(CC(F)CCc2nnc(C(=O)NCc3cccc(C(F)(F)F)c3)s2)nn1 (centres unmarked) [Example 480, 5-{3-fluoro-4-[4-({[5-(trifluoromethyl)pyridin-3-yl]methyl}carbamoyl)-1H-1,2,3-triazol-1-yl]butyl}-N-{[3-(trifluoromethyl)phenyl]methyl}-1,3,4-thiadiazole-2-carboxamide]",< 0.1,< 0.1 µM,–
"O=C(Cc1cccc(OC(F)(F)F)c1)Nc1cn(CCCCn2cc(C(=O)NCc3ccccn3)nn2)nn1 [Example 279, N-(pyridin-2-ylmethyl)-1-[4-(4-{2-[3-(trifluoromethoxy)phenyl]acetamido}-1H-1,2,3-triazol-1-yl)butyl]-1H-1,2,3-triazole-4-carboxamide]",0.1 to 0.5,< 0.1 µM,–
"Cc1ccc(CNC(=O)c2nnc(CCC(F)Cn3cc(C(=O)NCc4cccc(OC(F)(F)F)c4)nn3)s2)cn1 (centres unmarked) [Example 442, 5-{3-fluoro-4-[4-({[3-(trifluoromethoxy)phenyl]methyl}carbamoyl)-1H-1,2,3-triazol-1-yl]butyl}-N-[(6-methylpyridin-3-yl)methyl]-1,3,4-thiadiazole-2-carboxamide]",< 0.1,< 0.1 µM,–
"O=C(CC1CCCCC1)Nc1cn(CCCCn2cc(C(=O)NCC3CC3)nn2)nn1 [Example 305, 1-{4-[4-(2-cyclohexylacetamido)-1H-1,2,3-triazol-1-yl]butyl}-N-(cyclopropylmethyl)-1H-1,2,3-triazole-4-carboxamide]",0.5 to 5,0.5 to 5 µM,–
"O=C(NCc1cc(C(F)(F)F)ccn1)c1cn(CCCCn2cc(C(=O)NC3CCCC3)nn2)nn1 [Example 104, 1-{4-[4-(cyclopentylcarbamoyl)-1H-1,2,3-triazol-1-yl]butyl}-N-{[4-(trifluoromethyl)pyridin-2-yl]methyl}-1H-1,2,3-triazole-4-carboxamide]",0.5 to 5,0.5 to 5 µM,–
"C[C@H](NC(=O)c1cn(CCCCn2cc(C(=O)NCc3cc(C(F)(F)F)ccn3)nn2)nn1)c1ccccc1 [Example 99, 1-[4-(4-{[(1S)-1-phenylethyl]carbamoyl}-1H-1,2,3-triazol-1-yl)butyl]-N-{[4-(trifluoromethyl)pyridin-2-yl]methyl}-1H-1,2,3-triazole-4-carboxamide]",0.5 to 5,0.5 to 5 µM,–
"O=C(NCC1CCCCO1)c1cn(CCC(F)Cn2cc(C(=O)NCc3cc(C(F)(F)F)ccn3)nn2)nn1 (centres unmarked) [Example 472, 1-(2-fluoro-4-{4-[(oxan-2-ylmethyl)carbamoyl]-1H-1,2,3-triazol-1-yl}butyl)-N-{[4-(trifluoromethyl)pyridin-2-yl]methyl}-1H-1,2,3-triazole-4-carboxamide]",0.1 to 0.5,0.1 to 0.5 µM,–
"O=C(Cc1cccc(OC(F)(F)F)c1)Nc1nnc(CCC(F)Cn2cc(C(=O)NCc3ncccc3F)nn2)s1 (centres unmarked) [Example 537, 1-[2-fluoro-4-(5-{2-[3-(trifluoromethoxy)phenyl]acetamido}-1,3,4-thiadiazol-2-yl)butyl]-N-[(3-fluoropyridin-2-yl)methyl]-1H-1,2,3-triazole-4-carboxamide]",0.1 to 0.5,< 0.1 µM,–
"O=C(Cc1cccc(OC(F)(F)F)c1)Nc1nnc(CCC(F)Cn2cc(C(=O)NCc3ccc(C(F)(F)F)nc3)nn2)s1 (centres unmarked) [Example 498, 1-[2-fluoro-4-(5-{2-[3-(trifluoromethoxy)phenyl]acetamido}-1,3,4-thiadiazol-2-yl)butyl]-N-{[6-(trifluoromethyl)pyridin-3-yl]methyl}-1H-1,2,3-triazole-4-carboxamide]",< 0.1,< 0.1 µM,–
"O=C(NCc1ncccc1F)c1cn(CCC(F)Cn2cc(C(=O)NCc3cc(OC(F)(F)F)ccc3F)nn2)nn1 (centres unmarked) [Example 444, 1-{3-fluoro-4-[4-({[2-fluoro-5-(trifluoromethoxy)phenyl]methyl}carbamoyl)-1H-1,2,3-triazol-1-yl]butyl}-N-[(3-fluoropyridin-2-yl)methyl]-1H-1,2,3-triazole-4-carboxamide]",< 0.1,< 0.1 µM,–
"O=C(Cc1cccnc1)Nc1ccc(CCCCc2nnc(C(=O)NCc3ccccc3)s2)nn1 [Example 30, N-benzyl-5-(4-{6-[2-(pyridin-3-yl)acetamido]pyridazin-3-yl}butyl)-1,3,4-thiadiazole-2-carboxamide]",< 0.1,< 0.1 µM,–
"O=C(NCc1cccc(C2CC2)c1)c1cn(CCC(F)Cn2cc(C(=O)NCc3cc(C4CC4)ccn3)nn2)nn1 (centres unmarked) [Example 129, N-[(3-cyclopropylphenyl)methyl]-1-[4-(4-{[(4-cyclopropylpyridin-2-yl)methyl]carbamoyl}-1H-1,2,3-triazol-1-yl)-3-fluorobutyl]-1H-1,2,3-triazole-4-carboxamide]",< 0.1,< 0.1 µM,–
"CC(C)(O)CNC(=O)c1nnc(CCCCc2ccc(NC(=O)Cc3cccc(OC(F)(F)F)c3)nn2)s1 [Example 34, N-(2-hydroxy-2-methylpropyl)-5-[4-(6-{2-[3-(trifluoromethoxy)phenyl]acetamido}pyridazin-3-yl)butyl]-1,3,4-thiadiazole-2-carboxamide]",0.1 to 0.5,< 0.1 µM and 0.1 to 0.5 µM,–
"O=C(Cc1cccc(OC(F)(F)F)c1)Nc1ccc(CCCCc2nnc(C(=O)NCc3ccccc3)s2)nn1 [Example 36, N-benzyl-5-[4-(6-{2-[3-(trifluoromethoxy)phenyl]acetamido}pyridazin-3-yl)butyl]-1,3,4-thiadiazole-2-carboxamide]",< 0.1,< 0.1 µM,–
"O=C(NCc1cccc(OC(F)(F)F)c1)c1cn(CCC(F)Cn2cc(C(=O)NCc3cccc(C(F)(F)F)n3)nn2)nn1 (centres unmarked) [Example 436, 1-{2-fluoro-4-[4-({[3-(trifluoromethoxy)phenyl]methyl}carbamoyl)-1H-1,2,3-triazol-1-yl]butyl}-N-{[6-(trifluoromethyl)pyridin-2-yl]methyl}-1H-1,2,3-triazole-4-carboxamide]",< 0.1,< 0.1 µM,–
"CNC(=O)c1cn(CCC(F)Cn2cc(C(=O)NCc3cccc(S(C)(=O)=O)c3)nn2)nn1 (centres unmarked) [Example 183, 1-[3-fluoro-4-(4-{[(3-methanesulfonylphenyl)methyl]carbamoyl}-1H-1,2,3-triazol-1-yl)butyl]-N-methyl-1H-1,2,3-triazole-4-carboxamide]",> 5,0.1 to 0.5 µM,–
"O=C(Cc1cc(C2CC2)ccn1)Nc1nnc(CCC(F)Cn2cc(C(=O)NCc3cncc(C(F)(F)F)c3)nn2)s1 (centres unmarked) [Example 580, 1-(4-(5-(2-(4-cyclopropylpyridin-2-yl)acetamido)-1,3,4-thiadiazol-2-yl)-2-fluorobutyl)-N-((5-(trifluoromethyl)pyridin-3-yl)methyl)-1H-1,2,3-triazole-4-carboxamide]",< 0.1,< 0.1 µM,–
"O=C(Cc1ccccn1)Nc1nnc(CC[C@@H](F)Cn2cc(C(=O)NCc3cc(C(F)(F)F)ccn3)nn2)s1 [Example 250, (R)-1-(2-fluoro-4-(5-(2-(pyridin-2-yl)acetamido)-1,3,4-thiadiazol-2-yl)butyl)-N-((4-(trifluoromethyl)pyridin-2-yl)methyl)-1H-1,2,3-triazole-4-carboxamide]",–,< 0.1 µM,< 0.1
"O=C(Cc1ccccc1)Nc1ccc(CCCCc2nnc(C(=O)NCc3ccccc3)s2)nn1 [Example 28, N-benzyl-5-{4-[6-(2-phenylacetamido)pyridazin-3-yl]butyl}-1,3,4-thiadiazole-2-carboxamide]",0.1 to 0.5,< 0.1 µM,–
"COc1ccc(CNC(=O)c2cn(CCCCc3nnc(NC(=O)Cc4cccc(OC(F)(F)F)c4)s3)nn2)c(OC)c1 [Example 22, N-[(2,4-dimethoxyphenyl)methyl]-1-[4-(5-{2-[3-(trifluoromethoxy)phenyl]acetamido}-1,3,4-thiadiazol-2-yl)butyl]-1H-1,2,3-triazole-4-carboxamide]",0.1 to 0.5,< 0.1 µM,–
"O=C(Cc1ccccn1)Nc1nnc(CC[C@@H](F)Cn2cc(C(=O)NCc3cc(OC(F)(F)F)ccc3F)nn2)s1 [Example 198, (R)-1-(2-fluoro-4-(5-(2-(pyridin-2-yl)acetamido)-1,3,4-thiadiazol-2-yl)butyl)-N-(2-fluoro-5-(trifluoromethoxy)benzyl)-1H-1,2,3-triazole-4-carboxamide]",< 0.1,< 0.1 µM,–
